Molecules are shown by their SMILES. Where a name gives a salt, the structure may show the parent alone.

Series [1] concerns relapsed or refractory AML. Briefly: Treatment response in participants with AML (2017 European Leukemia Net recommendations). The format is in vivo, human. The method, then: (§1) Treatment efficacy was assessed according to the 2017 European Leukemia Net recommendations for AML[23] and the 2006 International Working Group response criteria for MDS.[24] In participants with AML, efficacy outcomes included complete remission (CR), CR with incomplete blood count recovery (CRi), composite complete remission (CRc; CR + CRi), morphologic leukemia‐free state (MLFS), partial remission (PR), overall response rate (CRc + MLFS+PR), stable disease (SD), and treatment failure. Bone marrow biopsies/aspirates were obtained from all participants with AML on Day 1 of Cycles 2 and 3 and once every cycle until response and on Day 1 of Cycles 6, 9, and 12 in responding participants.

The test system of series [2] is patients with solid tumors or lymphomas. The following applies: cited from earlier work.
In another series the test system is high‐risk MDS. Briefly: Treatment response in participants with high‐risk MDS (2006 International Working Group criteria). The format is in vivo, human. The following applies: Full Analysis Set. The method, then: as §1

For `CC1(C)CCC2(CC1)N[C@@H](C(=O)N[C@@H]1CC[C@@H](C(N)=O)OC1)[C@H](c1ccnc(Cl)c1F)[C@]21C(=O)Nc2cc(Cl)ccc21` [Milademetan monotherapy, milademetan tosylate hydrate], in series [1] (Full Analysis Set), the “AML: CR” value is recorded as 2 (4%) n (%) and the “AML: CRi” value is 1 (2%) n (%). For the same molecule, in series [1] (as given in the abstract), the “Participants who achieved CR with incomplete blood count recovery (CRi)” value worked out at 2.1% and the “Participants who achieved complete remission (CR)” value is given as 4.2%. In addition, in series [1] (as summed in the discussion), the Participants with remission is 4 n (%). Further, the DLT observed result in series [2] (120 mg QD 21/28, phase 1 studies in the United States and Japan) was “thrombocytopenia and nausea”. The MTD in series [2] (US study in solid tumors, QD 3/14 × 2 schedule) was 260 mg. Also, in the series on high‐risk MDS, the “MDS: Marrow CR” value is recorded as 1 (11%) n (%) and the “MDS: SD” value is reported as 2 (22%) n (%).

The values are drawn from article PMC11258486, “Phase 1 dose escalation study of the MDM2 inhibitor milademetan as monotherapy and in combination with azacitidine in patients with myeloid malignancies” (Cancer Medicine, 2024).
